Assay results taken from ChEMBL document CHEMBL1147182, “Clubbed thiazoles by MAOS: a novel approach to cyclin-dependent kinase 5/p25 inhibitors as a potential treatment for Alzheimer's disease” (Bioorg Med Chem, 2007).

Experiments:
[1] = Cytotoxicity against VeroC1008 cells at 6.25 to 50 ug/ml by neutral red uptake assay; format: cell-based; conditions: chlorocebus sabaeus, vero
[2] = target: Cyclin-dependent kinase 5/CDK5 activator 1 (Homo sapiens, UniProt Q00535); assay: Inhibition of human cdk5/p25 by SPA; format: protein-complex assay
Cyclin-dependent kinase 5/CDK5 activator 1, sequence (Q00535 whole entry): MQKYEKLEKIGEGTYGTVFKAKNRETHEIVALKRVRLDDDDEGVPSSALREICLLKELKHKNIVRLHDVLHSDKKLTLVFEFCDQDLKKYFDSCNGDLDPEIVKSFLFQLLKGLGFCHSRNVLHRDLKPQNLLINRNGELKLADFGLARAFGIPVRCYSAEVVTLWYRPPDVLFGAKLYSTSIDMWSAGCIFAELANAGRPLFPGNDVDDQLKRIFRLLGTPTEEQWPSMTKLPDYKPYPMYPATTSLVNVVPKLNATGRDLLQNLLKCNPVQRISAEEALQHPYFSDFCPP
Cyclin-dependent kinase 5/CDK5 activator 1, sequence (Q15078 whole entry, further chain): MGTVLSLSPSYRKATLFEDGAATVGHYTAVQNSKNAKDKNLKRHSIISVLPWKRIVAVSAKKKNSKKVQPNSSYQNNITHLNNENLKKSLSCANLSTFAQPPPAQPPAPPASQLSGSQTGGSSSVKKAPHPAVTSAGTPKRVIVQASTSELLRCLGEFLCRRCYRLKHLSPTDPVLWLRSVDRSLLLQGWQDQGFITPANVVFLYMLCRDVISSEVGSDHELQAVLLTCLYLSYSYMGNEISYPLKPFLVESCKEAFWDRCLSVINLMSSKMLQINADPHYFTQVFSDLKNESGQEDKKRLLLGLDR

Structure (SMILES)	IC50 [2] [µM]	Activity [1]
N#CCSc1nnc(Cc2csc(NC(=O)c3ccccc3)n2)n1NC(=O)c1ccccc1	0.496	Non-toxic
CC(=O)Nc1nc(Cc2nnc(SCC#N)n2NC(C)=O)cs1	0.463	Non-toxic
CC(=O)NNC(=O)CSc1nnc(Cc2csc(NCCC(=O)O)n2)n1NC(=O)c1ccccc1	0.472	Non-toxic
Nn1c(CSc2nnc(Cc3csc(NC(=O)CCl)n3)n2NC(=O)c2ccc(Cl)cc2)n[nH]c1=S	3.26	Non-toxic
O=C(O)CCNc1nc(Cc2nnc(S)n2NC(=O)c2ccccc2)cs1	0.674	Non-toxic
Nn1c(CSc2nnc(Cc3csc(NC(=O)c4ccccc4)n3)n2NC(=O)c2ccc(Cl)cc2)n[nH]c1=S	3.18	Non-toxic
CC(=O)Nn1c(Cc2csc(NCCC(=O)O)n2)nnc1SCC(=O)NNC(=O)CCl	0.264	Non-toxic
CC(=O)Nc1nc(Cc2nnc(SCC(=O)N/N=C/c3ccccc3)n2NC(=O)c2ccccc2)cs1	0.485	Non-toxic
NNC(=O)CSc1nnc(Cc2csc(NCCC(=O)O)n2)n1NC(=O)c1ccccc1	0.465	Non-toxic
COC(=O)CSc1nnc(Cc2csc(NC(=O)c3ccccc3)n2)n1NC(=O)c1ccccc1	0.364	Non-toxic
CC(=O)NNC(=O)CSc1nnc(Cc2csc(NCCC(=O)O)n2)n1NC(C)=O	0.463	Non-toxic
CC(=O)NNC(=O)CSc1nnc(Cc2csc(NC(=O)CCl)n2)n1NC(C)=O	0.354	Non-toxic
Nn1c(S)nnc1Cc1csc(NC(=O)CCl)n1	0.39	Non-toxic
CC(=O)Nn1c(Cc2csc(NC(=O)CCl)n2)nnc1SCC(=O)NNC(=O)CCl	0.462	Non-toxic
CC(=O)Nn1c(Cc2csc(NCCC(=O)O)n2)nnc1SCSc1nnc(Cc2csc(NCCC(=O)O)n2)n1NC(C)=O	0.743	Non-toxic
CC(=O)Nc1nc(Cc2nnc(SCSc3nnc(Cc4csc(NC(C)=O)n4)n3NC(C)=O)n2NC(C)=O)cs1	0.847	Non-toxic
O=C(Nc1nc(Cc2nnc(SCSc3nnc(Cc4csc(NC(=O)c5ccccc5)n4)n3NC(=O)c3ccccc3)n2NC(=O)c2ccccc2)cs1)c1ccccc1	0.698	Non-toxic

Structure (SMILES)	IC50 [2] [µM]	Activity [1]
CC(=O)Nc1nc(Cc2n[nH]c(=S)n2NC(C)=O)cs1	0.598	Non-toxic
CC(=O)Nc1nc(Cc2nnc(SCc3n[nH]c(=S)n3N)n2NC(=O)c2ccc(Cl)cc2)cs1	7.48	Non-toxic
CC(=O)Nc1nc(Cc2nnc(SCSc3nnc(Cc4csc(NC(C)=O)n4)n3NC(=O)c3ccc(Cl)cc3)n2NC(=O)c2ccc(Cl)cc2)cs1	0.382	Non-toxic
CC(=O)Nn1c(Cc2csc(NC(=O)c3ccccc3)n2)nnc1SCc1nnc(S)n1N	6.34	Non-toxic
CC(=O)Nc1nc(Cc2nnc(SCC(=O)NNC(=O)c3ccccc3)n2NC(=O)c2ccc(Cl)cc2)cs1	0.534	Non-toxic
CC(=O)Nc1nc(Cc2nnc(SCc3nnc(S)n3N)n2NC(C)=O)cs1	5.25	Non-toxic
CC(=O)Nc1nc(Cc2nnc(SCC(=O)NNC(=O)CCl)n2NC(=O)c2ccc(Cl)cc2)cs1	0.26	Non-toxic
CC(=O)Nc1nc(Cc2nnc(SCC(=O)NN)n2NC(=O)c2ccccc2)cs1	0.197	Non-toxic
CC(=O)Nn1c(Cc2csc(NCCC(=O)O)n2)n[nH]c1=S	0.436	Non-toxic
CC(=O)Nn1c(Cc2csc(NC(=O)c3ccccc3)n2)nnc1SCC(=O)NN	0.186	Non-toxic
O=C(CSc1nnc(Cc2csc(NC(=O)c3ccccc3)n2)n1NC(=O)c1ccccc1)NNC(=O)c1ccccc1	0.463	Non-toxic
O=C(O)CCNc1nc(Cc2nnc(SCC(=O)NNC(=O)CCl)n2NC(=O)c2ccccc2)cs1	0.462	Non-toxic
CC(=O)NNC(=O)CSc1nnc(Cc2csc(NCCC(=O)O)n2)n1NC(=O)c1ccc(Cl)cc1	0.352	Non-toxic
CC(=O)Nn1c(Cc2csc(NC(=O)CCl)n2)nnc1SCC(=O)NNC(=O)c1ccccc1	0.365	Non-toxic
O=C(Nc1nc(Cc2n[nH]c(=S)n2NC(=O)c2ccccc2)cs1)c1ccccc1	0.894	Non-toxic
CC(=O)NNC(=O)CSc1nnc(Cc2csc(NC(C)=O)n2)n1NC(=O)c1ccccc1	0.542	Non-toxic
COC(=O)CSc1nnc(Cc2csc(NC(=O)c3ccccc3)n2)n1NC(C)=O	0.598	Non-toxic

More lines, in order of falling IC50 [2], values ahead:

IC50 [2] [µM]	Structure (SMILES)	Activity [1]
6.99	Nn1c(S)nnc1CSc1nnc(Cc2csc(NC(=O)CCl)n2)n1NC(=O)c1ccccc1	Non-toxic
6.41	CC(=O)Nn1c(Cc2csc(NCCC(=O)O)n2)nnc1SCc1nnc(S)n1N	Non-toxic
4.65	Nn1c(CSc2nnc(Cc3csc(NC(=O)c4ccccc4)n3)n2NC(=O)c2ccccc2)n[nH]c1=S	Non-toxic
4.64	CC(=O)Nn1c(Cc2csc(NC(=O)CCl)n2)nnc1SCc1nnc(S)n1N	Non-toxic
0.847	CC(=O)Nn1c(Cc2csc(NC(=O)CCl)n2)nnc1SCSc1nnc(Cc2csc(NC(=O)CCl)n2)n1NC(C)=O	Non-toxic
0.761	O=C(CCl)Nc1nc(Cc2n[nH]c(=S)n2NC(=O)c2ccccc2)cs1	Non-toxic
0.684	CC(=O)Nn1c(S)nnc1Cc1csc(NC(=O)CCl)n1	Non-toxic
0.674	O=C(CCl)Nc1nc(Cc2nnc(SCSc3nnc(Cc4csc(NC(=O)CCl)n4)n3NC(=O)c3ccccc3)n2NC(=O)c2ccccc2)cs1	Non-toxic
0.657	N#CCSc1nnc(Cc2csc(NC(=O)CCl)n2)n1NC(=O)c1ccccc1	Non-toxic
0.647	CC(=O)Nc1nc(Cc2nnc(SCSc3nnc(Cc4csc(NC(C)=O)n4)n3NC(=O)c3ccccc3)n2NC(=O)c2ccccc2)cs1	Non-toxic
0.643	CC(=O)NNC(=O)CSc1nnc(Cc2csc(NC(=O)c3ccccc3)n2)n1NC(C)=O	Non-toxic
0.642	O=C(CCl)Nc1nc(Cc2nnc(S)n2NC(=O)c2ccc(Cl)cc2)cs1	Non-toxic
0.641	CC(=O)NNC(=O)CSc1nnc(Cc2csc(NC(C)=O)n2)n1NC(=O)c1ccc(Cl)cc1	Non-toxic
0.641	CC(=O)Nn1c(Cc2csc(NCCC(=O)O)n2)nnc1SCC#N	Non-toxic
0.64	O=C(CSc1nnc(Cc2csc(NC(=O)CCl)n2)n1NC(=O)c1ccc(Cl)cc1)NNC(=O)c1ccccc1	Non-toxic
0.635	CC(=O)Nn1c(Cc2csc(NCCC(=O)O)n2)nnc1SCC(=O)N/N=C/c1ccccc1	Non-toxic
0.564	CC(=O)NNC(=O)CSc1nnc(Cc2csc(NC(=O)c3ccccc3)n2)n1NC(=O)c1ccccc1	Non-toxic
0.562	N#CCSc1nnc(Cc2csc(NC(=O)CCl)n2)n1NC(=O)c1ccc(Cl)cc1	Non-toxic
0.56	COC(=O)CSc1nnc(Cc2csc(NCCC(=O)O)n2)n1NC(=O)c1ccc(Cl)cc1	Non-toxic

IC50 [2] [µM]	Structure (SMILES)	Activity [1]
0.542	O=C(CCl)NNC(=O)CSc1nnc(Cc2csc(NC(=O)c3ccccc3)n2)n1NC(=O)c1ccccc1	Non-toxic
0.526	O=C(O)CCNc1nc(Cc2nnc(SCC(=O)N/N=C/c3ccccc3)n2NC(=O)c2ccccc2)cs1	Non-toxic
0.487	N#CCSc1nnc(Cc2csc(NCCC(=O)O)n2)n1NC(=O)c1ccccc1	Non-toxic
0.467	CC(=O)Nn1c(Cc2csc(NC(=O)c3ccccc3)n2)nnc1SCC(=O)N/N=C/c1ccccc1	Non-toxic
0.467	COC(=O)CSc1nnc(Cc2csc(NC(C)=O)n2)n1NC(C)=O	Non-toxic
0.464	CC(=O)NNC(=O)CSc1nnc(Cc2csc(NC(=O)CCl)n2)n1NC(=O)c1ccc(Cl)cc1	Non-toxic
0.463	CC(=O)Nc1nc(Cc2nnc(SCC(=O)N/N=C/c3ccccc3)n2NC(C)=O)cs1	Non-toxic
0.462	CC(=O)Nc1nc(Cc2nnc(S)n2NC(=O)c2ccc(Cl)cc2)cs1	Non-toxic
0.426	N#CCSc1nnc(Cc2csc(NCCC(=O)O)n2)n1NC(=O)c1ccc(Cl)cc1	Non-toxic
0.413	CC(=O)Nn1c(Cc2csc(NC(=O)c3ccccc3)n2)nnc1SCC(=O)NNC(=O)c1ccccc1	Non-toxic
0.395	CC(=O)Nc1nc(Cc2nnc(SCC#N)n2NC(=O)c2ccccc2)cs1	Non-toxic
0.38	COC(=O)CSc1nnc(Cc2csc(NC(C)=O)n2)n1NC(=O)c1ccc(Cl)cc1	Non-toxic
0.34	O=C(CCl)Nc1nc(Cc2nnc(SCSc3nnc(Cc4csc(NC(=O)CCl)n4)n3NC(=O)c3ccc(Cl)cc3)n2NC(=O)c2ccc(Cl)cc2)cs1	Non-toxic
0.34	O=C(CCl)NNC(=O)CSc1nnc(Cc2csc(NC(=O)c3ccccc3)n2)n1NC(=O)c1ccc(Cl)cc1	Non-toxic
0.29	COC(=O)CSc1nnc(Cc2csc(NC(=O)c3ccccc3)n2)n1NC(=O)c1ccc(Cl)cc1	Non-toxic
0.268	NNC(=O)CSc1nnc(Cc2csc(NC(=O)c3ccccc3)n2)n1NC(=O)c1ccccc1	Non-toxic
0.264	Nn1c(S)nnc1Cc1csc(NCCC(=O)O)n1	Non-toxic
0.246	O=C(CSc1nnc(Cc2csc(NC(=O)c3ccccc3)n2)n1NC(=O)c1ccc(Cl)cc1)N/N=C/c1ccccc1	Non-toxic
